The subject of one data set is guinea pigs. The data set is described as follows: Active Systemic Anaphylaxis Test in Guinea Pigs. The note with it: positive control group, after stimulation.
A further data set relates to SD rats. The data set is described as follows: Passive Anaphylaxis Test in Rats. It counts as in vivo, rat. Also on record: key to Blue Stain Reaction: − indicates negative; + indicates positive. The note with it: sensitized SD rats, 100 mg/kg intravenously, positive control.
Data set [1] can be described thus: Solubility Test for Nimodipine in Oil Phase. It counts as physicochemical. The note with it: normal temperature; for solubility: oil or lipid. From the text: There are different crystalline forms for nimodipine, i.e. α and β. The solubility is different in solvents for different crystalline forms. […] The solubility in an oil phase was not reported yet. […] Furthermore, the solubility of α-type is much greater than that of β-type both in the medium-chain fatty oil and the mixture of soybean oil and medium-chain fatty oil (see the table below). Therefore, formulating α-type nimodipine into a fat emulsion injection may solve the problems of low drug loading efficiency, poor safety, and poor stability occurring in its solution for injection and other fat emulsions for injection developed by the prior art. [table]

For data set [2] the following is noted: cited from earlier work.
The conditions of data set [3]: cited from earlier work. This is another data set of the same source.
For data set [4], the system named is Wild-type AB zebrafish larvae. The data set is described as follows: Zebrafish cardiovascular toxicity, administration by dissolving the drug into the water. It counts as in vivo. Also noted: Mortality / Incidence of Atrial Arrest: unit not given here.
The test system of data set [5] is Wild-type AB zebrafish larvae. The data set is described as follows: Zebrafish cardiovascular toxicity, administration via yolk sac injection. It counts as in vivo. The note with it: yolk sac injection 10 nl. The method, then: Wild-type AB zebrafish larvae were treated with the drugs to be tested for 24 hours via yolk sac injection administration with a maximum dose volume of 40 nl, and the five initial test concentrations were: 0.1 mg/mL, 1 mg/mL, 10 mg/mL, 100 mg/mL, and 500 mg/mL, respectively. At the same time, a blank control group was set up, with 30 zebrafish treated at each concentration. At the end of drug treatment, the number of zebrafish deaths in each experimental group was counted to provide a basis for the next experimental concentration design.
2.2.1 10 nl was administered via yolk sac injection. After treatment for a certain period of time, 10 zebrafish were randomly selected to have their heart rates counted, and their relative heart rates were calculated for comparison.
2.2.3 10 zebrafish in each group were randomly selected and observed under the dissecting microscope. […]
Three formal experimental concentrations were set. After treatment for a certain period of time, 10 zebrafish were randomly selected to have their heart rates counted, and their relative heart rates were calculated for comparison.

Setting [6] is: dissolved into the water, 0.625 μg/ml.
[7] abbreviates: dissolved into the water, 1.25 μg/ml.
The mark [8] stands for this setting: dissolved into the water, 2.5 μg/ml.
The mark [9] stands for this setting: dissolved into the water, 5.0 μg/ml.

Values after ≈ are worked out from the molar mass of the structure shown. Like-named read-outs stand apart in the source and are kept apart here.

“bovine serum albumin: positive control of the anaphylaxis tests”: in the data set with guinea pigs, the “intensity of anaphylaxis reaction” value is reported as “++˜++++”, the mortality rate turned out to be 50% and the total reaction rate turned out to be 100%. In addition, in the data set with SD rats, the “Blue Stain Reaction” value was “+” and the “Blue Stain Reaction (diameter)” value amounted to 22.0 ± 4.3 mm.

With `COCCOC(=O)C1=C(C)NC(C)=C(C(=O)OC(C)C)C1c1cccc([N+](=O)[O-])c1` (stereo not drawn) [α-type, nimodipine], in data set [1], the “Solubility, Medium-chain Oil” value is 23.22 mg/mL (≈ 55.5 mM); the “Solubility, Soybean Oil” value was 7.5 mg/mL (≈ 17.9 mM); the “Solubility, Soybean Oil:Medium-chain Oil (4:6)” value turned out to be 18.1 mg/mL (≈ 43.3 mM).

For `COCCOC(=O)C1=C(C)NC(C)=C(C(=O)OC(C)C)C1c1cccc([N+](=O)[O-])c1` (stereo not drawn) [β-type, nimodipine], in data set [2] (normal temperature), the “Solubility, Water” value is 3.6 µg/mL (≈ 0.0086 mM). The solubility in water in data set [2] (published literature) is 3.6 µg/mL (≈ 0.0086 mM). The solubility – broadly, the dissolved amount per volume that the medium holds – amounted to 11.8 mg/mL (≈ 28.2 mM) in data set [1] (medium-chain oil, read-out: Solubility, Medium-chain Oil); 6.7 mg/mL (≈ 16 mM) in data set [1] (soybean oil, read-out: Solubility, Soybean Oil); 11 mg/mL (≈ 26.3 mM) in data set [1] (soybean oil:medium-chain oil (4:6), read-out: Solubility, Soybean Oil:Medium-chain Oil (4:6)).

Turning to `COCCOC(=O)C1=C(C)NC(C)=C(C(=O)OC(C)C)C1c1cccc([N+](=O)[O-])c1` (centres unmarked) [Drug substance, Nimodipine], the figures for the oral bioavailability in data set [3] (healthy subjects) and in data set [3] (patients with subarachnoid hemorrhage) were 5-13% and 3-28%, respectively. In addition, the biological half-life in data set [3] (in vivo) is recorded as 1.5-2 h. Also, in data set [4] (dissolved into the water), the “concentration at which pericardial edema was induced in all zebrafish” value was determined as 5.0 µg/mL. Further, the “Incidence of Atrial Arrest” value was found to be 0 in data set [4] (setting [6]), 0 in data set [4] (setting [7]), 10 in data set [4] (setting [8]) and 90 in data set [4] (setting [9]). Further, the “Incidence of Pericardial Edema” value in data set [4] (setting [6]) amounted to 10; in data set [4] (setting [7]), 20; in data set [4] (setting [8]), 50; in data set [4] (setting [9]) it was 100; in data set [5] (0.5 mg/ml), 0%; in data set [5] (1.0 mg/ml), 20%. Moreover, the “Incidence of Pericardial Edema” value in data set [5] (2.0 mg/ml (67 mg/kg)) was determined as 30%; in data set [5] (4.0 mg/ml), 60%; in data set [5] (8.0 mg/ml), 60%; in data set [5] (16 mg/ml), 70%; in data set [5] (32 mg/ml), 100%. Further, the Mortality in data set [4] (setting [6]) is listed as 0; in data set [4] (setting [7]) it was 0; in data set [4] (setting [8]), 0; in data set [4] (setting [9]), 26.7; in data set [5] (0.5 mg/ml) it was 0%; in data set [5] (1.0 mg/ml), 0%. In addition, the Mortality is given as 0% in data set [5] (2.0 mg/ml); 20% in data set [5] (4.0 mg/ml); 33.3% in data set [5] (8.0 mg/ml); 50% in data set [5] (16 mg/ml); 80% in data set [5] (32 mg/ml). Further, the “Relative Heart Rate” value in data set [4] (setting [6]) worked out at 97.0; in data set [4] (setting [7]), 94.8; in data set [4] (setting [8]) it was 76.4; in data set [4] (setting [9]), 58.5. Further, in data set [4] (setting [9]), the “incidence of atrial arrest” value came to 90%. For the same molecule, the maximum non-lethal concentration in data set [4] (zebrafish, drug dissolved into the water, 24 hours) worked out at 2.5 µg/mL. For the same molecule, the “Actual Heart Rate (± SD)” value in data set [5] (0.5 mg/ml) is given as 159.0 ± 6.8 beat / min; in data set [5] (1.0 mg/ml) it was 159.6 ± 5.3 beat / min; in data set [5] (2.0 mg/ml), 158.4 ± 8.7 beat / min; in data set [5] (4.0 mg/ml) it was 166.5 ± 7.2 beat / min; in data set [5] (8.0 mg/ml), 167.1 ± 10.2 beat / min; in data set [5] (16 mg/ml), 166.8 ± 10.3 beat / min. Also, the “Actual Heart Rate (± SD)” value in data set [5] (32 mg/ml) came out at 144.5 ± 7.4 beat / min. Also, the “Incidence of Circulatory Insufficiency” value in data set [5] (0.5 mg/ml) is recorded as 0%; in data set [5] (1.0 mg/ml), 0%; in data set [5] (2.0 mg/ml), 10%; in data set [5] (4.0 mg/ml), 10%; in data set [5] (8.0 mg/ml), 40%; in data set [5] (16 mg/ml) it was 40%. For the same molecule, the “Incidence of Circulatory Insufficiency” value in data set [5] (32 mg/ml) was 100%. Moreover, the “Incidence of Decreased Blood Flow” value in data set [5] (0.5 mg/ml) came to 0%; in data set [5] (1.0 mg/ml), 10%; in data set [5] (2.0 mg/ml), 10%; in data set [5] (4.0 mg/ml), 40%; in data set [5] (8.0 mg/ml), 10%; in data set [5] (16 mg/ml), 30%. For the same molecule, the “Incidence of Decreased Blood Flow” value in data set [5] (32 mg/ml) worked out at 0%. The “Relative Heart Rate (± SD)” value was 99.1 ± 4.2% in data set [5] (0.5 mg/ml); 99.4 ± 3.3% in data set [5] (1.0 mg/ml); 98.7 ± 5.4% in data set [5] (2.0 mg/ml); 103.7 ± 4.5% in data set [5] (4.0 mg/ml); 104.1 ± 6.4% in data set [5] (8.0 mg/ml); 103.9 ± 6.4% in data set [5] (16 mg/ml). For the same molecule, in data set [5] (32 mg/ml), the “Relative Heart Rate (± SD)” value was determined as 90.0 ± 4.6 %.

The record behind these values is patent US12491181B2, “Nimodipine injection composition and preparation method therefor” (priority 2018, dated 2025).
